Patent publication US5395947A, “Platinum(II) complex and processes for preparing the same” (Sunkyong Industries, Ltd., priority 1991, dated 1995)

How the values were obtained:
[1] = Test for water solubility; assay type: physicochemical; conditions: water
Text: 3. Test for water solubility
A standard plot of UV absorbance(220 nm) vs. concentration was made; and employed to determine water-solubility.
The mixture was then passed through a 0.45 micron disposable membrane filter before dilution and UV measurement.

[2] = test system: murine leukemia L1210 cells; test: Growth inhibition test on cultured murine leukemia L1210 cells; assay type: cell-based; conditions: 48 hours, 37° C., Trypan blue viability
How it was run: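 Read-out is Trypan blue (0.17%) viability versus compound-free controls. Cells, 1×10^5, were cultured 48 h at 37° C under 5% CO2 in RPMI 1640/10% FCS containing various compound concentrations.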

[3] = test system: murine leukemia L1210; test: Antitumor activity test on murine leukemia L1210 in vivo; parameters: species or system male BDF1 mice; conditions: days 1, 5, 9
How it was run: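 Male BDF1 mice (6 weeks, 21±3 g; n=7) received 1×10^6 leukemia cells into the peritoneum on day 0, then test compound suspended or dissolved in 0.5% CMC i.p. on days 1, 5, 9. Activity expressed as T/C %, mean survival treated versus 0.5% CMC-injected controls.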

[4] = test system: ICR mice; test: Acute toxicity test; assay type: in vivo; parameters: Lethality: unit not given here; conditions: for Lethality: 10080 min
Method: 7-week-old ICR mice(male: 34±2 g; female: 31±2 g) were fed with solid food and water under the condition of 23±1° C. temperature and 65±5% humidity before the test.
Each treatment group consisted of 6 mice. The test compounds were administered intraperitoneally.
For 7 days after the administration, the appearance and the fate of the tested animals were recorded. The dead animals were subjected to autopsy and their visible pathological changes were observed. Their viscerals were stored in 10% formalin solution.

For `NC[C@H]1OC2(CCCC2)O[C@@H]1CN.O=C1C[O][Pt][O]1` [Example 3, (glycolato-O,O')[(4R,5R)-4,5-bis(aminomethyl)-1,3-dioxolane-2-spiro-1'-cyclopentane]platinum (II)], the Solubility in water [1] was 5800 µg/mL, the “IC50 (concentration required for 50% inhibition of growth)” value [2] was 0.10 µg/mL and the “T/C (%)” value ([3]; 3.1 mg/kg i.p.) was 154%. The “T/C (%)” value ([3]; 6.2 mg/kg i.p.) was 161%, the “T/C (%)” value ([3]; 12.5 mg/kg i.p.) was 295% and the “T/C (%)” value ([3]; 25 mg/kg i.p.) was “toxic”. For the same compound, the “T/C (%)” value ([3]; 50 mg/kg i.p.) was “toxic”, the “Number of dead mice for 7 days” value ([4]; female, 25.0 mg/kg i.p.) was 0/6 and the “Number of dead mice, 1st day” value ([4]; female, 25.0 mg/kg i.p.) was 0/6. The “Number of dead mice for 7 days” value ([4]; female, 32.5 mg/kg i.p.) was 0/6, the “Number of dead mice, 1st day” value ([4]; female, 32.5 mg/kg i.p.) was 0/6 and the “Number of dead mice for 7 days” value ([4]; female, 42.3 mg/kg i.p.) was 2/6. For the same compound, the “Number of dead mice, 1st day” value ([4]; female, 42.3 mg/kg i.p.) was 0/6, the “Number of dead mice, 4th day” value ([4]; female, 42.3 mg/kg i.p.) was 1/6 and the “Number of dead mice, 5th day” value ([4]; female, 42.3 mg/kg i.p.) was 1/5. For the same compound, the Lethality ([4]; female, 42.3 mg/kg i.p.) was 33.3, the “Number of dead mice for 7 days” value ([4]; female, 55.0 mg/kg i.p.) was 5/6 and the “Number of dead mice, 1st day” value ([4]; female, 55.0 mg/kg i.p.) was 0/6. For the same compound, the “Number of dead mice, 3rd day” value ([4]; female, 55.0 mg/kg i.p.) was 4/6, the “Number of dead mice, 4th day” value ([4]; female, 55.0 mg/kg i.p.) was 1/2 and the Lethality ([4]; female, 55.0 mg/kg i.p.) was 83.2. For the same compound, the “Number of dead mice for 7 days” value ([4]; female, 71.4 mg/kg i.p.) was 6/6, the “Number of dead mice, 1st day” value ([4]; female, 71.4 mg/kg i.p.) was 0/6 and the “Number of dead mice, 3rd day” value ([4]; female, 71.4 mg/kg i.p.) was 4/6. For the same compound, the “Number of dead mice, 4th day” value ([4]; female, 71.4 mg/kg i.p.) was 2/2, the Lethality ([4]; female, 71.4 mg/kg i.p.) was 100.0 and the “Number of dead mice for 7 days” value ([4]; male, 25.0 mg/kg i.p.) was 0/6. The “Number of dead mice, 1st day” value ([4]; male, 25.0 mg/kg i.p.) was 0/6, the “Number of dead mice for 7 days” value ([4]; male, 32.5 mg/kg i.p.) was 0/6 and the “Number of dead mice, 1st day” value ([4]; male, 32.5 mg/kg i.p.) was 0/6. The “Number of dead mice, 4th day” value ([4]; male, 32.5 mg/kg i.p.) was 1/6, the “Number of dead mice for 7 days” value ([4]; male, 42.3 mg/kg i.p.) was 2/6 and the “Number of dead mice, 1st day” value ([4]; male, 42.3 mg/kg i.p.) was 0/6. For the same compound, the “Number of dead mice, 4th day” value ([4]; male, 42.3 mg/kg i.p.) was 1/6, the Lethality ([4]; male, 42.3 mg/kg i.p.) was 33.3 and the “Number of dead mice for 7 days” value ([4]; male, 55.0 mg/kg i.p.) was 6/6. The “Number of dead mice, 1st day” value ([4]; male, 55.0 mg/kg i.p.) was 0/6, the “Number of dead mice, 3rd day” value ([4]; male, 55.0 mg/kg i.p.) was 4/6 and the “Number of dead mice, 4th day” value ([4]; male, 55.0 mg/kg i.p.) was 1/2. For the same compound, the “Number of dead mice, 5th day” value ([4]; male, 55.0 mg/kg i.p.) was 1/1, the Lethality ([4]; male, 55.0 mg/kg i.p.) was 100.0 and the “Number of dead mice for 7 days” value ([4]; male, 71.4 mg/kg i.p.) was 6/6. The “Number of dead mice, 1st day” value ([4]; male, 71.4 mg/kg i.p.) was 0/6, the “Number of dead mice, 3rd day” value ([4]; male, 71.4 mg/kg i.p.) was 4/6 and the “Number of dead mice, 4th day” value ([4]; male, 71.4 mg/kg i.p.) was 2/2. It also gave a Lethality ([4]; male, 71.4 mg/kg i.p.) of 100.0.

With `NC[C@H]1OC2(CCCCC2)O[C@@H]1CN.O=C1C[O][Pt][O]1` [Example 4, (glycolato-O,O'){cyclohexanespiro-2'-[(4'R,5'R)-4',5'-bis(aminomethyl)-1',3'-dioxolane]}-platinum(II)] the Solubility in water [1] was 2900 µg/mL, the “IC50 (concentration required for 50% inhibition of growth)” value [2] was 0.08 µg/mL and the “T/C (%)” value ([3]; 3.1 mg/kg i.p.) was 102%. For the same compound, the “T/C (%)” value ([3]; 6.2 mg/kg i.p.) was 146%, the “T/C (%)” value ([3]; 12.5 mg/kg i.p.) was 233% and the “T/C (%)” value ([3]; 25 mg/kg i.p.) was 231%. For the same compound, the “T/C (%)” value ([3]; 50 mg/kg i.p.) was “toxic”, the “Number of dead mice for 7 days” value ([4]; female, 25.0 mg/kg i.p.) was 0/6 and the “Number of dead mice, 1st day” value ([4]; female, 25.0 mg/kg i.p.) was 0/6. For the same compound, the “Number of dead mice for 7 days” value ([4]; female, 32.5 mg/kg i.p.) was 0/6, the “Number of dead mice, 1st day” value ([4]; female, 32.5 mg/kg i.p.) was 0/6 and the “Number of dead mice for 7 days” value ([4]; female, 42.3 mg/kg i.p.) was 0/6. The “Number of dead mice, 1st day” value ([4]; female, 42.3 mg/kg i.p.) was 0/6, the “Number of dead mice for 7 days” value ([4]; female, 55.0 mg/kg i.p.) was 2/6 and the “Number of dead mice, 1st day” value ([4]; female, 55.0 mg/kg i.p.) was 0/6. For the same compound, the “Number of dead mice, 3rd day” value ([4]; female, 55.0 mg/kg i.p.) was 1/6, the “Number of dead mice, 4th day” value ([4]; female, 55.0 mg/kg i.p.) was 1/5 and the Lethality ([4]; female, 55.0 mg/kg i.p.) was 33.3. The “Number of dead mice for 7 days” value ([4]; female, 71.4 mg/kg i.p.) was 4/6, the “Number of dead mice, 1st day” value ([4]; female, 71.4 mg/kg i.p.) was 0/6 and the “Number of dead mice, 2nd day” value ([4]; female, 71.4 mg/kg i.p.) was 2/6. For the same compound, the “Number of dead mice, 3rd day” value ([4]; female, 71.4 mg/kg i.p.) was 1/4, the “Number of dead mice, 4th day” value ([4]; female, 71.4 mg/kg i.p.) was 1/3 and the Lethality ([4]; female, 71.4 mg/kg i.p.) was 66.7. For the same compound, the “Number of dead mice for 7 days” value ([4]; male, 25.0 mg/kg i.p.) was 0/6, the “Number of dead mice, 1st day” value ([4]; male, 25.0 mg/kg i.p.) was 0/6 and the “Number of dead mice for 7 days” value ([4]; male, 32.5 mg/kg i.p.) was 0/6. The “Number of dead mice, 1st day” value ([4]; male, 32.5 mg/kg i.p.) was 0/6, the “Number of dead mice for 7 days” value ([4]; male, 42.3 mg/kg i.p.) was 0/6 and the “Number of dead mice, 1st day” value ([4]; male, 42.3 mg/kg i.p.) was 0/6. For the same compound, the “Number of dead mice for 7 days” value ([4]; male, 55.0 mg/kg i.p.) was 3/6, the “Number of dead mice, 1st day” value ([4]; male, 55.0 mg/kg i.p.) was 0/6 and the “Number of dead mice, 2nd day” value ([4]; male, 55.0 mg/kg i.p.) was 2/6. The “Number of dead mice, 3rd day” value ([4]; male, 55.0 mg/kg i.p.) was 1/4, the Lethality ([4]; male, 55.0 mg/kg i.p.) was 50.0 and the “Number of dead mice for 7 days” value ([4]; male, 71.4 mg/kg i.p.) was 4/6. For the same compound, the “Number of dead mice, 1st day” value ([4]; male, 71.4 mg/kg i.p.) was 0/6, the “Number of dead mice, 2nd day” value ([4]; male, 71.4 mg/kg i.p.) was 3/6 and the “Number of dead mice, 3rd day” value ([4]; male, 71.4 mg/kg i.p.) was 1/3. It also gave a Lethality ([4]; male, 71.4 mg/kg i.p.) of 66.7.
